Key:
Type in all cases: cell-based
[1] = test system: senescent IMR90 cells; assay: Senescence assay, viability of senescent IMR90 cells; details: Homo sapiens, IMR-90; chemotherapy-induced senescent IMR90 cells, 24-72 hours with compound, viability by CellTiter-Glo or XTT; read-out: IMR90_SEN IC50 (Absolute IC50 average)
Description: (§1) Cells were maintained in DMEM media (high glucose, 4 mM L-glutamine, no sodium pyruvate) supplemented with 10% fetal bovine serum in a humidified incubator at 37° C. with 5% carbon dioxide. Senescence was induced via treatment with a sublethal concentration of chemotherapy (bleomycin, gemcitabine, doxorubicin, 5-fluorouridine), followed by a rest period without chemotherapy similarly to what is reported by others in the field (e.g., Aoshiba et al., 2003 Eur Respir J 22:436-443). Senescence was qualified by low EdU (5-ethynyl-2′-deoxyuridine) incorporation and high SA-β-Gal (senescence-associated beta-galactosidase) staining compared to proliferating untreated cells. Senescent cells were plated into 96-well plates at a density of 5-15,000 cells/well. The next day, compounds were added in duplicate across ten different concentrations spanning roughly four Log 10 units. Cells were incubated with the compounds for 24-72 hours, at which point viability is quantified using CellTiter-Glo (Promega) or XTT (R&D Systems). The viability for treated cells was determined relative to untreated control cells. The log of the compound concentration vs. normalized mean viability was a fit to a four parameters Hill function with variable slope. The bottom was constrained to be greater than zero. The X mean value for Y=50 interpolated to determine the absolute IC50. […]

[2] = test system: senescent HEPG2 cells; assay: Senescence assay, viability of senescent HEPG2 cells; details: Homo sapiens; chemotherapy-induced senescent HEPG2 cells, 24-72 hours with compound, viability by CellTiter-Glo or XTT; read-out: HEPG2_SEN IC50 (Absolute IC50 average)
Description: as §1

[3] = test system: senescent NHDF cells; assay: Senescence assay, viability of senescent NHDF cells; details: Homo sapiens; chemotherapy-induced senescent NHDF cells, 24-72 hours with compound, viability by CellTiter-Glo or XTT; read-out: NHDF_SEN IC50 (Absolute IC50 average)
Description: as §1

[4] = test system: senescent A549 cells; assay: Senescence assay, viability of senescent A549 cells; details: Homo sapiens; chemotherapy-induced senescent A549 cells, 24-72 hours with compound, viability by CellTiter-Glo or XTT; read-out: A549_SEN IC50 (Absolute IC50 average)
Description: as §1

Row | Compound | IC50 [1] | IC50 [2] | IC50 [3] | IC50 [4]
1 | C#CC(F)(F)[C@]1(O)CC[C@H]2[C@@H]3CCC4=CC(=O)CCC4=C3[C@@H](c3ccc(O)cc3)C[C@@]21C [Compound 1, (1S,3aS,3bS,10R,11aS)-1-(1,1-difluoroprop-2-yn-1-yl)-1-hydroxy-10-(4-hydroxyphenyl)-11a-methyl-2H,3H,3aH,3bH,4H,5H,8H,9H,10H,11H-cyclopenta[a]phenanthren-7-one] | 100 to 1000 nM | 100 to 1000 nM | 100 to 1000 nM | 1000 to 10000 nM
2 | C#CC(=O)[C@]1(O)CC[C@H]2[C@@H]3CCC4=CC(=O)CCC4=C3[C@@H](c3ccc(C4CC4)cc3)C[C@@]21C [Compound 2, (8S,11R,13S,14S,17S)-11-(4-cyclopropylphenyl)-17-hydroxy-13-methyl-17-propioloyl-1,2,6,7,8,11,12,13,14,15,16,17-dodecahydro-3H-cyclopenta[a]phenanthren-3-one] | – | – | 1000 to 10000 nM | –

Reference: patent US20250296951A1, “GPX4 Inhibitors and Senolytic Compounds and Uses Thereof” (Rubedo Life Sciences, Inc., priority 2024, published 2025)
